In paper PMC11500159, “Synthesis, α-Glucosidase, α-Amylase, and Aldol Reductase Inhibitory Activity with Molecular Docking Study of Novel Imidazo[1,2-a]pyridine Derivatives” (ACS Omega, 2024):

How the values were obtained:
α-amylase (α-AMY) = target: T1, α-amylase (α-AMY) (Homo sapiens, UniProt P04746); assay: α-AMY inhibitory activity (starch-iodine method, absorbance at 580 nm); type: biochemical; settings: from Activity (%) - [inhibitor] graphs
T1 sequence (P04746 16-511): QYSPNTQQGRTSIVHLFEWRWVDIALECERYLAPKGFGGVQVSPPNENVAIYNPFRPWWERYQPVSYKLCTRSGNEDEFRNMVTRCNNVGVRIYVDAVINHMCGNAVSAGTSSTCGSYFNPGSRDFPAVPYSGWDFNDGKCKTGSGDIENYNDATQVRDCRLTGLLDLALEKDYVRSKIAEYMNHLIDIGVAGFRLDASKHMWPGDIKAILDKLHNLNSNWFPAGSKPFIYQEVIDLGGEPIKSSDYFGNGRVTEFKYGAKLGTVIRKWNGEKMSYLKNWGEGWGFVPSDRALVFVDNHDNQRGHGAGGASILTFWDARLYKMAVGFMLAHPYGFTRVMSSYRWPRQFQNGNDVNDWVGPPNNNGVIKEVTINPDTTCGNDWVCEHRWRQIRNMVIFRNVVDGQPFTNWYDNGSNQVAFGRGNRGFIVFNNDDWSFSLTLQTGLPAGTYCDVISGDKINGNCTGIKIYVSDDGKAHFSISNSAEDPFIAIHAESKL
Experimental: The assay involved preparing a substrate solution of starch in NaOH, adjusting the pH with HCl, and diluting the solution to volume. Enzyme and sample solutions were preincubated, mixed with the substrate, and incubated again. The reaction was stopped with HCl, and the absorbance was measured at 580 nm.
(§1) The inhibition effects of the novel imidazo[1,2-a]pyridine-based 1,3,4-thiadiazole derivatives were determined with different inhibitor concentrations (at least five) against AR, α-GLY, and α-AMY. The IC50 of the derivatives was calculated from Activity (%) – [inhibitor] graphs for derivatives. The inhibition types and KI values were found by Lineweaver and Burk’s curves.[50],[51]

α-glycosidase (α-GLY) = α-glycosidase (α-GLY) (Saccharomyces cerevisiae, UniProt P53341); assay: α-GLY inhibitory activity (para-nitrophenyl-α-D-glucopyranoside substrate); type: biochemical; settings: Lineweaver-Burk curves; for Ki: mean ± SEM
Experimental: In this analysis, a unit of α-GLY activity is defined as the amount of enzyme required to catalyze the hydrolysis of […] of substrate per minute at a standard pH of 7.4.
as §1

aldose reductase (AR) = aldose reductase (AR) (Homo sapiens, UniProt P15121); assay: AR inhibitory activity (NADPH consumption, absorbance at 340 nm); type: biochemical; settings: Lineweaver-Burk curves; mean ± SEM
Experimental: The activity was assessed using methods that were modified from previously established protocols.[48],[49] The inhibitory activity of AR was assessed by measuring the reduction in absorbance at 340 nm due to the consumption of NADPH. […] The IC50 of the derivatives was calculated from Activity (%) – [inhibitor] graphs for derivatives.

α-glycosidase (α-GLY), sequence (P53341 whole entry): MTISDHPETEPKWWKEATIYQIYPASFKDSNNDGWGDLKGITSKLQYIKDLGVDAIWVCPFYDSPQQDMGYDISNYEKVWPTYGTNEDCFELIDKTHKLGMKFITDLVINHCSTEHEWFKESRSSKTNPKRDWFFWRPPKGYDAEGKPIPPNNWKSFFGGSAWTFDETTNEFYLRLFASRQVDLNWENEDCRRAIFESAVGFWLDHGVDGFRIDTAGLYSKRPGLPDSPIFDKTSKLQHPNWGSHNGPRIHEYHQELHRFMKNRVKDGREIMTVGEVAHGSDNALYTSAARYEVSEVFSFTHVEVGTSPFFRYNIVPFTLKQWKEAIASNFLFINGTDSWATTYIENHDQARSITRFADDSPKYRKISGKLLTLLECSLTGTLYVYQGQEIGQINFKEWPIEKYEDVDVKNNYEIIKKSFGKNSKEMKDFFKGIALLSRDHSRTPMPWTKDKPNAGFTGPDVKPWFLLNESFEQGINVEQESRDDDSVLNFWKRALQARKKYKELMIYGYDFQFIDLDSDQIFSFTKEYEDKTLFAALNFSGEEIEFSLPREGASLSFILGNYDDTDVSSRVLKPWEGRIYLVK

Row | SMILES | melting point | IC50 (α-amylase (α-AMY)) | Ki (α-glycosidase (α-GLY)) | Ki (aldose reductase (AR)) | α-GLY inhibition type (α-glycosidase (α-GLY))
1 | O=C(CSc1nnc(Nc2cccc(Cl)c2)s1)Nc1ccc(-c2cn3ccccc3n2)cc1 [8g, 2-[(5-(3-Chlorophenyl)amino-1,3,4-thiadiazol-2-yl)thio]-N-[4-(imidazo[1,2-a]pyridin-2-yl)phenyl]acetamide] | 199.2 °C | 132 µM | – | – | –
2 | COc1cccc(Nc2nnc(SCC(=O)Nc3ccc(-c4cn5ccccc5n4)cc3)s2)c1 [8h, 2-[(5-(3-Methoxyphenyl)amino-1,3,4-thiadiazol-2-yl)thio]-N-[4-(imidazo[1,2-a]pyridin-2-yl)phenyl]acetamide] | 138.8 °C | 143 µM | – | – | –
3 | O=C(CSc1nnc(Nc2ccc(Cl)cc2)s1)Nc1ccc(-c2cn3ccccc3n2)cc1 [8f, 2-[(5-(4-Chlorophenyl)amino-1,3,4-thiadiazol-2-yl)thio]-N-[4-(imidazo[1,2-a]pyridin-2-yl)phenyl]acetamide] | 265 °C | 142 µM | – | – | –
4 | CCNc1nnc(SCC(=O)Nc2ccc(-c3cn4ccccc4n3)cc2)s1 [8d, 2-[(5-Ethylamino-1,3,4-thiadiazol-2-yl)thio]-N-[4-(imidazo[1,2-a]pyridin-2-yl)phenyl] Acetamide] | – | 122 µM | 88.7 ± 17.7 µM | 0.0785 ± 0.00824 µM | –
5 | O=C(CSc1nnc(Nc2ccccc2Cl)s1)Nc1ccc(-c2cn3ccccc3n2)cc1 [8j, 2-[(5-(2-Chlorophenyl)amino-1,3,4-thiadiazol-2-yl)thio]-N-[4-(imidazo[1,2-a]pyridin-2-yl)phenyl]acetamide] | 129 °C | 81.1 µM | – | – | –
6 | O=C(CSc1nnc(NC2CCCCC2)s1)Nc1ccc(-c2cn3ccccc3n2)cc1 [8c, 2-[(5-Cyclohexylamino-1,3,4-thiadiazol-2-yl)thio]-N-[4-(imidazo[1,2-a]pyridin-2-yl)phenyl] Acetamide] | – | – | 77.5 ± 5.74 µM | 0.14 ± 0.0133 µM | –
7 | Cc1ccc(Nc2nnc(SCC(=O)Nc3ccc(-c4cn5ccccc5n4)cc3)s2)cc1 [8e, 2-[(5-(4-Methylphenyl)amino-1,3,4-thiadiazol-2-yl)thio]-N-[4-(imidazo[1,2-a]pyridin-2-yl)phenyl]acetamide] | 130.1 °C | – | – | – | competitive inhibition
8 | CCc1ccc(Nc2nnc(SCC(=O)Nc3ccc(-c4cn5ccccc5n4)cc3)s2)cc1 [8b, 2-[(5-(4-Ethylphenyl)amino-1,3,4-thiadiazol-2-yl)thio]-N-[4-(imidazo[1,2-a]pyridin-2-yl)phenyl]acetamide] | 244.2 °C | 113 µM | – | – | noncompetitive inhibition
9 | COc1ccccc1Nc1nnc(SCC(=O)Nc2ccc(-c3cn4ccccc4n3)cc2)s1 [8i, 2-[(5-(2-Methoxyphenyl)amino-1,3,4-thiadiazol-2-yl)thio]-N-[4-(imidazo[1,2-a]pyridin-2-yl)phenyl]acetamide] | 104.9 °C | 154 µM | – | – | –
10 | COc1ccc(Nc2nnc(SCC(=O)Nc3ccc(-c4cn5ccccc5n4)cc3)s2)cc1 [8k, 2-[(5-(4-Methoxyphenyl)amino-1,3,4-thiadiazol-2-yl)thio]-N-[4-(imidazo[1,2-a]pyridin-2-yl)phenyl]acetamide] | 216.5 °C | 113 µM | – | – | –
11 | O=C(CSc1nnc(Nc2ccccc2)s1)Nc1ccc(-c2cn3ccccc3n2)cc1 [8a, 2-[(5-Phenylamino-1,3,4-thiadiazol-2-yl)thio]-N-[4-(imidazo[1,2-a]pyridin-2-yl)phenyl] Acetamide] | – | 142 µM | 33 ± 1.25 µM | 0.0349 ± 0.00359 µM | –
